Test results reported in patent US20250277191A1, “METHODS AND COMPOSITIONS FOR CRYOPRESERVING SUBPOPULATIONS OF LYMPHOCYTES” (Ossium Health, Inc., priority 2022, published 2025).
“Also recorded” adds a separate entry of the source.

What was measured:
[1] = tested on: Hematopoietic cells and bone marrow; assay: CFU assay of bone marrow after thawing cells cryopreserved in DMSO; type: cell-based, human; conditions: for BFU-E / CFU-E / CFU-GEMM / CFU-GM / total CFU: after thawing, average score from duplicate wells
Experimental: Bone marrow prior to DMSO addition (designated “QC1”) was washed and resuspended at a concentration of 8×10^6 cells/ml in Rinse Media. Cells were aliquoted and mixed with equal volumes of DMSO solutions to yield final concentrations of either 2.5, 5 or 10% DMSO in Rinse Media. A 2.5 ml volume of each preparation was aliquoted in triplicate to 5 ml cryovials. After equilibrating for 5 minutes, the cryovials were placed in a CryoMed Controlled Rate Freezer and frozen using the following program: • Step 1. −1° C./minute to −86° C. • Step 2. −20° C./minute to −150° C. • Step 3. Hold at −150° C. The vials were transferred to LN2 after 5 minutes at −150° C. The following day, cryovials containing cryopreserved cells were thawed in a 37° C. water bath and transferred to a biological safety cabinet after sanitizing with 70% alcohol. The cells were transferred to a centrifuge tube and pelleted. After removing the supernatant, the cells were resuspended in 12.5 ml of Selection Media. The tubes were centrifuged again and the cell pellet was resuspended in final volume of 25 ml of Selection Media. Total cell counts were obtained using a Sysmex Hematology Analyzer. CFU assays were also performed. Fresh and as well as previously cryopreserved hematopoietic cells and bone marrow preparations were analyzed by CFU assay. Given the limited sample size, statistical analysis could not be performed.

[2] = tested on: Hematopoietic cells and bone marrow; assay: Flow cytometry of HSPC and lymphocyte subsets in cryopreserved bone marrow; type: cell-based, human
Experimental: Bone marrow prior to DMSO addition (designated “QC1”) was washed and resuspended at a concentration of 8×10^6 cells/ml in Rinse Media. Cells were aliquoted and mixed with equal volumes of DMSO solutions to yield final concentrations of either 2.5, 5 or 10% DMSO in Rinse Media. A 2.5 ml volume of each preparation was aliquoted in triplicate to 5 ml cryovials. After equilibrating for 5 minutes, the cryovials were placed in a CryoMed Controlled Rate Freezer and frozen using the following program: • Step 1. −1° C./minute to −86° C. • Step 2. −20° C./minute to −150° C. • Step 3. Hold at −150° C. The vials were transferred to LN2 after 5 minutes at −150° C. The following day, cryovials containing cryopreserved cells were thawed in a 37° C. water bath and transferred to a biological safety cabinet after sanitizing with 70% alcohol. The cells were transferred to a centrifuge tube and pelleted. After removing the supernatant, the cells were resuspended in 12.5 ml of Selection Media. The tubes were centrifuged again and the cell pellet was resuspended in final volume of 25 ml of Selection Media. Total cell counts were obtained using a Sysmex Hematology Analyzer. Flow cytometry was performed using non-cryopreserved Hematopoietic cells and bone marrow QC1 sample for comparison. Panel design for flow cytometry with the following panel of conjugated antibodies (see Table 1). Each tube was stained with the viability dye 7-AAD after antibody staining. [table]

**Q.** Which results are given for C[S+](C)[O-] [DMSO, dimethyl sulfoxide]?
**A.** CFU potential ([1]; 10% DMSO compared to 2.5 or 5% DMSO, qualitative): significantly reduces; BFU-E ([1]; cryopreserved in 2.5% DMSO): 11.5; CFU-E ([1]; cryopreserved in 2.5% DMSO): 7.5; CFU-GEMM ([1]; cryopreserved in 2.5% DMSO): 0.5; CFU-GM ([1]; cryopreserved in 2.5% DMSO): 7.5; total CFU ([1]; cryopreserved in 2.5% DMSO): 27; BFU-E ([1]; cryopreserved in 5% DMSO): 11.5; CFU-E ([1]; cryopreserved in 5% DMSO): 6; CFU-GEMM ([1]; cryopreserved in 5% DMSO): 0.5; CFU-GM ([1]; cryopreserved in 5% DMSO): 9; total CFU ([1]; cryopreserved in 5% DMSO): 27; BFU-E ([1]; cryopreserved in 10% DMSO): 4; CFU-E ([1]; cryopreserved in 10% DMSO): 3.5; CFU-GEMM ([1]; cryopreserved in 10% DMSO): 0; CFU-GM ([1]; cryopreserved in 10% DMSO): 0; total CFU ([1]; cryopreserved in 10% DMSO): 7.5; total CD3+ T cells ([2]; 2.5% DMSO compared to either 5 or 10%, FIG. 2B): reduced; Natural Killer cells (CD3-CD19-CD56+) ([2]; 2.5 or 5% DMSO compared with 10%, FIG. 2F): highest; percentage of viable CD45LOCD34+ HSPC in thawed products ([2]; 5% DMSO compared with 2.5 and 10% DMSO, FIG. 2A): highest; also recorded: enhanced; percentage of CD3+CD4-CD8-gd TCR+ gd T cells ([2]; 10% DMSO compared to 2.5 and 5%, FIG. 2C): lowest; gd T cells, sensitivity to DMSO concentration ([2]; across 2.5, 5 and 10% DMSO): relatively insensitive; percentage of CD4+CDRA+CCR7+ naïve T cells ([2]; across 2.5, 5 and 10% DMSO, FIG. 2D): increased with increasing DMSO concentrations; also recorded: lowest with the lower DMSO concentrations; naïve CD8+ T cells ([2]; across 2.5, 5 and 10% DMSO, significant between 2.5 and 10%, FIG. 2E): trend in decreasing; also recorded: relatively insensitive; percentage of HSPC within the total viable cell population ([2]; cryopreserved in 5% DMSO versus fresh, FIG. 1A): increased with cryopreservation; total population of T cells (CD3+) ([2]; cryopreserved in 5% DMSO versus fresh, FIG. 1B): decreased; also recorded: reduced; percentage of gd T cells ([2]; cryopreserved in 5% DMSO versus fresh, FIG. 1C): significant increase; also recorded: increased with cryopreservation; percentage of CD4+/CD8+CDRA+CCL7+ naïve T cells ([2]; cryopreserved in 5% DMSO versus fresh, FIG. 1D and 1E): significantly decreased; also recorded: reduced; percentage of NK cells ([2]; cryopreserved in 5% DMSO versus fresh, FIG. 1F): decreased following cryopreservation
